Measurements published in PMC9014415, “Repositioning of a Diaminothiazole Series Confirmed to Target the Cyclin-Dependent Kinase CRK12 for Use in the Treatment of African Animal Trypanosomiasis” (Journal of Medicinal Chemistry, 2022).

Assay: Bovine hepatocyte stability
Format: in vitro ADME
Conditions: intrinsic clearance
Procedure: collagen coated cell culture plates for 10 minutes at 37 °C, 5% CO2. Upon addition of an equal volume of supplemented WME containing 1 µM test compound, an aliquot of incubation solution was removed to acetonitrile containing internal standard (final concentration 0.5 µM test compound and a cell density of 0.25 million cells/mL). Similarly, aliquots were removed at 3, 6, 9, 15, 30, 45, 60, 90 and 120 min. 100 µL of 80:20 water:acetonitrile was added to all samples and the analysis plate was centrifuged (10 min, 1,665 g, RT) prior to injection and analysis of samples by UPLC-MS/MS. The response (area ratio of test compound relative to internal standard) was plotted against time using an exponential decay model and rate of disappearance calculated. Hepatocyte CLint (mL/min/10^6 cells) was scaled to in vivo CLint (ml/min/g Liver) using the hepato-cellularity scaling factor of 120 x […]
(b) Bovine hepatocyte stability. Freshly isolated female bovine (Prim’Holstein) hepatocytes were supplied by Biopredic InternationalTM. […]
of 80:20 water:acetonitrile was added to all samples and the analysis plate was centrifuged (10 min, 1,665 g, RT) prior to injection and analysis of samples by UPLC-MS/MS. The response (area ratio of test compound to internal standard) was plotted against time using an exponential decay model and rate of disappearance calculated. […]

CC(C)CS(=O)(=O)N[C@H]1CC[C@H](Nc2nc(N)c(C(=O)c3c(F)cccc3F)s2)CC1 [Compound 1, N-((trans)-4-((4-Amino-5-(2,6-difluorobenzoyl)thiazol-2-yl)amino)cyclohexyl)-2-methylpropane-1-sulfonamide]
Bovine Hepatocyte Cli: <0.5 / 0.5 mL/min/g
